Here are results for three molecules from patent publication US12102633B2, “Spirolactone compounds” (Quixgen, Inc., priority 2017, dated 2024).

Assay [1] has as its system Human sebocytes. Kind of assay: Cellular levels of malonyl-CoA in human sebocytes. The note with it: 0.5 h, 30 min incubation, read-out: Malonyl-CoA in Sebo IC50. Type of assay: cell-based. As for the experimental part:
(§1) Shimadzu LC system was used for sample analysis consisting of system controller (Shimadzu CBM-20A), autosampler (Shimadzu SIL-20A), pump A and B (Shimadzu LC-20AD), column oven (Shimadzu CTO-20A), and analytical column (Phenomenex Gemini 5u C18 11A, 100×2 mm). LC was running at 200 μL/min in the binary gradient mode with mobile phase A (5 mM Ammonium Acetate and 5 mM DMBA in water (1,3-Dimethylbutylamine)) and B (methanol). The samples were analyzed on an AB Sciex QTrap4000 LC-MS/MS triple quadrupole mass spectrometer (Applied Biosystems). Malonyl-CoA and malonyl-13C-CoA were monitored in positive ion mode following MRM transitions at 854.2/347.1 and 855.1/246.1, respectively. The product and internal standard were coeluted to the mass spectrometer in 3 s with 50% H2O, 25% MeCN, 25% acetone, and 5 mM ammonium acetate. Ion chromatograms were integrated using the Analyst 1.5.2 software. Peak area ratios were compared against a standard curve and final cellular concentration of malonyl-CoA or production rate of malonyl-13C-CoA was calculated as pmoles/mg protein per minute.
Human sebocytes (Celprogen) were grown in growth media (DMEM with 4.5 g/L glucose, 0.584 g/L L-glutamine (Sigma), 100 units/mL of penicillin and 100 μg/mL of streptomycin (Gibco), 10% fetal bovine serum (Gibco)) at 37° C. in a humidified water jacketed incubator (Forma Scientific) supplemented with 5% CO2 till 100% confluency. Cells grown in 152 cm^2 cell culture dish (Corning) were trypsinized with 0.25% trypsin-EDTA (Gibco), centrifuged at 800 rpm for 10 min (Eppendorf) and resuspended in 4 mL growth media. To 1 μL serial diluted compounds in DMSO, 99 μL cells (around 0.5 million cells suspended in growth media) were added and mixed well followed by incubation in cell culture incubator for 30 min. Cells were then centrifuged at 800 rpm for 10 min and 70 μL 10% trichloroacetic acid was added to each well to lyse the cells and precipitate proteins. Cellular levels of malonyl-CoA were quantitated by LC-MS/MS.

For assay [2], the system named is 3T3-L1 adipocytes. The assay can be described thus: Lipogenesis of 3T3-L1 adipocytes. The note with it: Mus musculus, TG readout, read-out: LG-3T3 IC50. Type of assay: cell-based. As for the experimental part:
3T3-L1 fibroblast cells (Zen-Bio) were grown in 96-well culture microplate (Corning) with growth media to around 90-100% confluency. Culture media was changed to differentiation media (growth media supplemented with 3-Isobutyl-1-Methylxanthine 500 μM, Dexamethasone 1 μM, insulin 10 μg/mL, and rosiglitazone 2 μM) plus serially diluted compounds prepared in DMSO (1:1000 dilution). After incubation for 2 days, media was changed to maintenance media (growth media supplemented with insulin 10 μg/mL) plus serially diluted compounds prepared in DMSO (1:1000 dilution) for around 1 week with media changed every 2 days. Upon completion of the treatment, culture media are discarded and 200 μL 0.01% SDS was added to each well and shaken for 1 hour to lyse the cells. Cell lysates were then transferred to 400 μL Folch's solution (chloroform: methanol=2:1) and mixed well. After centrifuge at 2,000 rpm for 20 min, 200 μL of the lower organic phase was transferred to a plate with 10 μL sample buffer (chloroform:Triton-100=3:1). Samples were blown dried under nitrogen and 200 μL triglyceride (TG) quantification reagent (Thermo Fisher Scientific) was added, mixed, and incubated at 37° C. for 30 min. TG concentration was determined by reading absorbance at 535 nm (Dynex MRX^e Magellan Biosciences) and calculated from standard curve.

Assay [3] relates to Human sebocytes. Kind of assay: Proliferation of human sebocytes. The note with it: 24 hours, MTT, read-out: AP-Sebo IC50. The assay is classed as cell-based. As for the experimental part:
Human sebocytes (Celprogen) and keratinocytes (ATCC) were grown in 96-well culture microplate (Coming) with growth media to around 50% confluency. Media was changed to growth media mixed with serially diluted compounds in DMSO (1:1000 dilution). After treatment for 24 hours, media was changed to 100 μL phenol red free DMEM and cell numbers were quantitated by using Vybrant® MTT Cell Proliferation Assay Kit (Molecular Probes). Ten μL of 12 mM MTT stock solution was added to each well and the microplate was incubated at 37° C. for 4 hours. Then 100 μL of the SDS-HCl solution was added to each well and mixed thoroughly using a pipette. The microplate was incubated at 37° C. for 4 hours in a cell culture incubator. The microplate was mixed again using a pipette and absorbance was read at 570 nm (Dynex MRX^e Magellan Biosciences). Effect of compounds on proliferation of human keratinocytes was calculated by % of DMSO vehicle control.

In assay [4] the test system is Human sebocytes. Kind of assay: Lipogenesis of human sebocytes. The assay is classed as cell-based. The note with it: 96 hours, nile red, read-out: LG-Sebo IC50. The method, then:
Human sebocytes (Celprogen) were grown in collagen-coated 96-well culture microplate (White/Clear bottom, Coming BioCoat) with growth media till 100% confluency. Culture media was changed to growth media plus 100 μM arachidonic acid (Sigma) and 10 μM rosiglitazone (Tocris) with compounds prepared in DMSO (1:1000 dilution in growth media). Cells were treated with compounds for 96 hours with media containing compounds changed after 48 hours. Upon completion of treatment, cells were washed with 200 μL Phosphate Buffered Saline (PBS) and then fixed by adding 100 μL 4% formaldehyde (Sigma) and incubated at room temperature for 1 hour. Cells were then washed 3 times with PBS. Microplate was stained with 100 μL nile red solution prepared in PBS (2 mg/mL, 1:400 dilution) by incubating at 37° C. for 1 hour and then washed 3 times with PBS. The fluorescence was read at Ex 492 nm and Em 595 nm (TECAN SpectrofluorPlus). Effect of compounds on lipogenesis in sebocytes was calculated by % of DMSO vehicle control.

The subject of assay [5] is T1, Mouse ACC (ACC protein purified from liver).
T1 construct: ACC protein was purified by taking advantage of the biotinylation in the carboxylase domain
The assay can be described thus: Mouse ACC enzymatic activity assay. The note with it: read-out: EA-CoA mACC IC50. The assay is classed as biochemical. The method, then: ACC protein was purified by taking advantage of the biotinylation in the carboxylase domain. Male C57BL/6J mice (Jackson Laboratory) at 8-12 weeks of age were euthanized by using CO2 inhalation method and liver was immediately frozen on dry ice. To 100 mg liver was added 1 mL ice-cold tissue lysis buffer (20 mM Tris-HCl pH 7.5, 150 mM NaCl, 1 mM Na2EDTA, 1 mM EGTA, 1% Triton, 2.5 mM sodium pyrophosphate, 1 mM 3-glycerophosphate, 1 mM Na3VO4, 1 μg/mL leupeptin, 1 tablet of protease inhibitor cocktail (Roche) per 10 mL lysis buffer) followed by homogenization on ice with Power Gen 125 homogenizer (Fisher Scientific). After 30 min incubation on ice, tissue lysate was passed through a 10 mL syringe with 18½ G needle for 10 times to shear DNA. The lysate was then subject to 17.5%-35% saturated ammonium sulfate precipitation by adding 880 mg ammonium sulfate powder (Sigma) to 10 mL liver lysate in 10 min with stirring on ice. Sample was centrifuged at 14,000 rpm (Eppendorf) at 4° C. for 10 min and supernatant was saved for further precipitation by adding 880 mg ammonium sulfate powder to 10 ml supernatant in 10 min with stirring on ice. Sample was centrifuged at 14,000 rpm at 4° C. for 10 min. Supernatant was discarded and pellet was dissolved in 10 mL sample buffer (100 mM Tris-HCl, pH 7.5, 1 mM EDTA, 0.1 mM DTT, 0.5 M NaCl, and 5% glycerol). The sample was then added with 1 mL of Strep Mag beads slurry (Genscript) and rotated at 4° C. for 1 hour. Supernatant was discarded and beads were washed with sample buffer for 3 times. Protein was then eluted by adding 10 mL of 2 mM biotin (Promega) prepared in sample buffer. The eluate was then dialyzed at 4° C. for 1 hour by using Slide-A-Lyzer™ Dialysis Cassettes 10K MWCO (Thermo Fisher Scientific) against 3 changes of 200 mL dialysis buffer (50 mM HEPES, pH 7.5, 0.1 mM DTT, 1.0 mM EDTA, and 10% glycerol). Total protein concentration was then quantitated by using BCA protein assay kit (Pierce).
For ACC enzymatic activity assay, 1 μL serial diluted compounds prepared in DMSO in duplicate were mixed with 8 μL dialyzed sample at 37° C. for 10 min. Ninety one L of reaction buffer (50 mM HEPES pH 7.5, 10 mM MgCl2, 2.0 mM DTT, 0.5 mM acetyl-CoA, 4.0 mM ATP, 15 mM ^13C-NaHCO3, 0.75 mg/mL BSA, 0.5 mM sodium citrate) was added to the tube and mixed thoroughly. After incubation at 37° C. for 1 hour, 300 μl ice-cold quenching buffer (acetonitrile:methanol=1:1, 20 μM carbutamide as internal standard) was added to each tube and mixed well to terminate the reaction. Samples were centrifuged at 14,000 rpm for 10 min (Eppendorf) and supernatant was loaded onto LC-MS/MS for quantitation of malonyl-^13C-CoA (Gao et al., Journal of chromatography B, Analytical technologies in the biomedical and life sciences 853, 303-313 (2007)).
as §1

For assay [6], the target named is T2, human ACC2 (Homo sapiens, UniProt O00763).
T2 construct: purchased BPS Bioscience
T2 sequence (O00763 whole entry): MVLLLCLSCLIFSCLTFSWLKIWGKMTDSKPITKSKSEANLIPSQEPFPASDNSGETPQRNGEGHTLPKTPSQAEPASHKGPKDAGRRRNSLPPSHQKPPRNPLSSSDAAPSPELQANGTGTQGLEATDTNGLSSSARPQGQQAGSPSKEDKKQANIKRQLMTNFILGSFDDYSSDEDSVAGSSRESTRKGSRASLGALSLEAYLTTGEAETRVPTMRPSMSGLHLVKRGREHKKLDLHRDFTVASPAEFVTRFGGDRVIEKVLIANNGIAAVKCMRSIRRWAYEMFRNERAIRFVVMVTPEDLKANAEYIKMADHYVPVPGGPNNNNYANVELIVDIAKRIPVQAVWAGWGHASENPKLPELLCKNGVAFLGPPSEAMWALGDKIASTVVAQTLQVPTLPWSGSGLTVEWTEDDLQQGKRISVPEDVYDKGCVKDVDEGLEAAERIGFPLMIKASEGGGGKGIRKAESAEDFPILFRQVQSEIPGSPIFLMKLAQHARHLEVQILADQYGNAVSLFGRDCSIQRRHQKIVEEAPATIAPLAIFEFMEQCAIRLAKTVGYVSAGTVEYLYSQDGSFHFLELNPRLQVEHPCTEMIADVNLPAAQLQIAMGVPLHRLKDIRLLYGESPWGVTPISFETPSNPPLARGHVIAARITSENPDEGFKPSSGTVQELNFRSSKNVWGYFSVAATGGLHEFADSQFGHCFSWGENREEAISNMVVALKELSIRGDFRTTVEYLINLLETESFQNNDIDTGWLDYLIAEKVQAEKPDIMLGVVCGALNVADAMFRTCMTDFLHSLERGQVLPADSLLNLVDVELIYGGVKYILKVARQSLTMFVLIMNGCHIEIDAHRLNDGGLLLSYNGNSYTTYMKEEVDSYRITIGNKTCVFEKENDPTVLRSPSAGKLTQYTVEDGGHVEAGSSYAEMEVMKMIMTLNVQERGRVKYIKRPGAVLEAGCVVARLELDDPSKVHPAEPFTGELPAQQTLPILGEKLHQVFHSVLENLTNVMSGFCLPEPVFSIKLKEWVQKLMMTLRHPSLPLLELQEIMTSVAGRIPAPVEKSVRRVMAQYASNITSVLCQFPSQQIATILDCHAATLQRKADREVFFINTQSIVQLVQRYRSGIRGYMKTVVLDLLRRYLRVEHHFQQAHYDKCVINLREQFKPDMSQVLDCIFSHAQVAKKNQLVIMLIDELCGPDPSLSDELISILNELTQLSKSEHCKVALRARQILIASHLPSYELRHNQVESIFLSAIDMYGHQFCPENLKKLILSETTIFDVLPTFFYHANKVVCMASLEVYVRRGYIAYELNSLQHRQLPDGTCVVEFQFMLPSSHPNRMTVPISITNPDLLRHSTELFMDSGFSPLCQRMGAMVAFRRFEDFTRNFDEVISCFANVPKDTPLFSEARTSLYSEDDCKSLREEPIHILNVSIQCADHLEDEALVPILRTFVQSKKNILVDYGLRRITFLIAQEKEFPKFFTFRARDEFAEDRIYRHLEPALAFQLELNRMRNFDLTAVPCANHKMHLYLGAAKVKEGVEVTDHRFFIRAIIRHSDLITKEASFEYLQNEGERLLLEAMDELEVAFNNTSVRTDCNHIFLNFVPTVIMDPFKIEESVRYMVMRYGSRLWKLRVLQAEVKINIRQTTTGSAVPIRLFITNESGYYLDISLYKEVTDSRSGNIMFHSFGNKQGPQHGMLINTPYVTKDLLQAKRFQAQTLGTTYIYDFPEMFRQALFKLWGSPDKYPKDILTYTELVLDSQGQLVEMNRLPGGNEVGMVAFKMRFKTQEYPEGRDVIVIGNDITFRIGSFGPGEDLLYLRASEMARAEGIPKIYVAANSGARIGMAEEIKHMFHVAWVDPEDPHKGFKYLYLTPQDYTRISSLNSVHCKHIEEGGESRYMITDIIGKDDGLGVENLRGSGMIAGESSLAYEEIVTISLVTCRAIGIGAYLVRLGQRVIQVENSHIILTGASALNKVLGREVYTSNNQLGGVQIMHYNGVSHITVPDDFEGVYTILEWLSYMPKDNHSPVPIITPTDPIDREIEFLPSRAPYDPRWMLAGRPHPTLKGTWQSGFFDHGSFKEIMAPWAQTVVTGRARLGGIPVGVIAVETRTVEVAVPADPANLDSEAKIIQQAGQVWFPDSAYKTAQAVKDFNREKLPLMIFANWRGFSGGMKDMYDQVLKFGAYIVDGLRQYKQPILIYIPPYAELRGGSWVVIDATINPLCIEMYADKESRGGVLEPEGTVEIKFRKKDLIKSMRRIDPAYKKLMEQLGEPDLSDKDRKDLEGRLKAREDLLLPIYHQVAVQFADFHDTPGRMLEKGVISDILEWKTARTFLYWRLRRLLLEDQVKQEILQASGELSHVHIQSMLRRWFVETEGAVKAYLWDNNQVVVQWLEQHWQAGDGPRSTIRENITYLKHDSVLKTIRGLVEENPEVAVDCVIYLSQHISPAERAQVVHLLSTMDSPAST
Kind of assay: Human ACC enzymatic activity assay (ACC2). The note with it: purified human ACC2; read-out: EA-CoA hACC 2 IC50. The assay is classed as biochemical. As for the experimental part:
(§2) Human ACC enzymatic activity assays were performed by using purified human ACC1 and ACC2 proteins (BPS Bioscience). ACC1 and ACC2 proteins were diluted in 24.5 μL reaction buffer (50 mM HEPES pH 7.5, 10 mM MgCl2, 2.0 mM DTT, 4.0 mM ATP, 15 mM ^13C-NaHCO3, 0.75 mg/mL BSA, 0.5 mM sodium citrate), and final concentrations of ACC1 and ACC2 were 0.4 μg/mL and 0.48 μg/mL. For each reaction, 0.5 μL of serial diluted compounds were prepared in DMSO in duplicate or triplicate and mixed with the above 24.5 μL reaction mixtures with ACC proteins at 37° C. for 10 min. Meanwhile, 25 μL of reaction buffer plus acetyl-CoA (final concentration: 5 μM) was prepared freshly and added to the above 25 μL mixture to initiate the reaction. After incubation at 37° C. for 1-2 hours, 100 μl ice-cold 10% TCA with malonyl-^13C3-CoA (final concentration: 40 nM, Sigma-Aldrich) was added to terminate the reaction. For LC-MS/MS analysis, 300 μL quenching buffer (acetonitrile:methanol=1:1, 20 μM carbutamide as internal standard) was added to each tube and mixed well. Samples were then centrifuged at 14,000 rpm for 10 min (Eppendorf) and supernatants were loaded onto LC-MS/MS for quantitation of […] (Gao et al., Journal of chromatography B, Analytical technologies in the biomedical and life sciences 853, 303-313 (2007)).
as §1

Assay [7] relates to liver triglycerides (TG) in C57BL/6J mice. The assay can be described thus: Chronic treatment for reducing liver triglycerides in C57BL/6J mice. Type of assay: in vivo, mouse. The note with it: male C57BL/6J mice; 20 mg per kilogram body weight in 0.5% methylcellulose, oral gavage once per day for 2 weeks; FIG. 1, vs vehicle. The method, then: Male C57BL/6J mice (Jackson Laboratory) at around 9 weeks of age were treated with vehicle (0.5% methylcellulose or PEG400) or Example 14 (30 mg per kilogram body weight, dosing solution prepared in PEG400) and Example 20 (20 mg per kilogram body weight, dosing solution prepared in 0.5% methylcellulose) by oral gavage at ˜9:00 am, once per day for 2 weeks. Concentrations of Example 14 and Example 20 were 15 mg/ml and 2 mg/ml, respectively. The dosing volumes of Example 14 and Example 20 were 2 ml per kilogram body weight and 10 ml per kilogram body weight, respectively. After 14-day treatment, animals were euthanized in CO2 at 2 hours post dose and liver was frozen and kept on dry ice. Liver TG was measured by extracting lipids with chloroform:methanol 2:1 (v/v) followed by quantitation with Infinity™ Triglycerides Reagent (Thermo Scientific).

The target in assay [8] is T3, human ACC1 (Homo sapiens, UniProt Q13085).
T3 construct: purchased BPS Bioscience
Kind of assay: Human ACC enzymatic activity assay (ACC1). Type of assay: biochemical. The note with it: purified human ACC1; read-out: EA-CoA hACC 1 IC50. The method, then: as §2, §1

The conditions of assay [9]: in vivo; cited from earlier work.
For assay [10] the following is noted: in vivo; cited from earlier work. This is another data set of the same source.

“Also recorded” adds a separate entry of the source.

With `COc1cc(C(=O)N2CCC3(CC2)Cc2ccc(C(C)C)cc2C(=O)O3)cc2c(OC)cccc12` [Example 1, 1′-(4,8-dimethoxy-2-naphthoyl)-7-isopropylspiro[isochroman-3,4′-piperidin]-1-one], the IC50 (in general, the midpoint of a concentration-inhibition curve) in assay [1] came out at 41.5 nM; in [2], 1.3 nM; in [3], 93.3 nM; in assay [4] it was 10 nM; in assay [5], 3.7 nM.
Regarding `COc1cc(C(=O)N2CCC3(CC2)Cc2ccc(-c4cncc(C(=O)O)c4)cc2C(=O)O3)nc2c(C3CC3)cccc12` [Example 20, 5-(1′-(8-cyclopropyl-4-methoxyquinoline-2-carbonyl)-1-oxospiro[isochroman-3,4′-piperidin]-7-yl)nicotinic acid], the concentration for half-maximal inhibition (IC50) in assay [6] is 152 nM; in assay [8], 148 nM. The “Liver TG” value in assay [7] is “reduced liver triglycerides; also recorded: reduced liver TG”.
With `CCCCCCCCCCCCCCOc1ccc(C(=O)OCC(=O)N(C)CC(=O)OCC)o1` [olumacostat glasaretil], the “Primary endpoints in phase III study” value in [9] was “did not meet its primary endpoints”. The “Phase II data” value in assay [10] is on record as “positive”.
